In ChEMBL document CHEMBL5291721, “A preclinical secondary pharmacology resource illuminates target-adverse drug reaction associations of marketed drugs” (Nat Commun, 2023):

Assays:
[1] = biological target: T1, Alpha-2C adrenergic receptor (Homo sapiens, UniProt P18825); assay type: functional
T1 sequence (P18825 whole entry): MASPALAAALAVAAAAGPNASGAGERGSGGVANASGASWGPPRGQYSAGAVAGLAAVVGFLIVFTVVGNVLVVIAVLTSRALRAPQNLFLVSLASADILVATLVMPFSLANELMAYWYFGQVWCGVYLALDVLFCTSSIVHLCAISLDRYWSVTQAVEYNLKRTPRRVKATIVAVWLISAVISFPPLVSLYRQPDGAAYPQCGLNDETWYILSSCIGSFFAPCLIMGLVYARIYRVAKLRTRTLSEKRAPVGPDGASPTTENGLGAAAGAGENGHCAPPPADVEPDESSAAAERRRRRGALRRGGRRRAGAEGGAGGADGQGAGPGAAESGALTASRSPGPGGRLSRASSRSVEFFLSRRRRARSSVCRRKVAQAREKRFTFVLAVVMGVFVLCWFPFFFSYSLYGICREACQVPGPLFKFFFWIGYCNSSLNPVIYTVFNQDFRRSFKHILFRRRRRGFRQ

[2] = biological target: Beta-2 adrenergic receptor (Homo sapiens, UniProt P07550)
Vasopressin V2 receptor = Vasopressin V2 receptor (Homo sapiens, UniProt P30518)
B2 bradykinin receptor = biological target: T2, B2 bradykinin receptor (Homo sapiens, UniProt P30411)
T2 sequence (P30411 whole entry): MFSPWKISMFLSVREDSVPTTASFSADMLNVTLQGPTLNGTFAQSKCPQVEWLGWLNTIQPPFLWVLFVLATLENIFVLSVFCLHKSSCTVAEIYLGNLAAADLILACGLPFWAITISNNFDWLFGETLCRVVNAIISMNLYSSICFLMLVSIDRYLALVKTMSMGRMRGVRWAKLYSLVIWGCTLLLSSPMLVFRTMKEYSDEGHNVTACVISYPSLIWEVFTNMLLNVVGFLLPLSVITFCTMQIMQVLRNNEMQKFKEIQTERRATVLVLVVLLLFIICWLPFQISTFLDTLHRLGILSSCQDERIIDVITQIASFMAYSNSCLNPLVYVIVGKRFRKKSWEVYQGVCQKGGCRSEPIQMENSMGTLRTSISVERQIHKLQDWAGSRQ

[3] = biological target: T3, Cholecystokinin receptor type A (Homo sapiens, UniProt P32238)
T3 sequence (P32238 whole entry): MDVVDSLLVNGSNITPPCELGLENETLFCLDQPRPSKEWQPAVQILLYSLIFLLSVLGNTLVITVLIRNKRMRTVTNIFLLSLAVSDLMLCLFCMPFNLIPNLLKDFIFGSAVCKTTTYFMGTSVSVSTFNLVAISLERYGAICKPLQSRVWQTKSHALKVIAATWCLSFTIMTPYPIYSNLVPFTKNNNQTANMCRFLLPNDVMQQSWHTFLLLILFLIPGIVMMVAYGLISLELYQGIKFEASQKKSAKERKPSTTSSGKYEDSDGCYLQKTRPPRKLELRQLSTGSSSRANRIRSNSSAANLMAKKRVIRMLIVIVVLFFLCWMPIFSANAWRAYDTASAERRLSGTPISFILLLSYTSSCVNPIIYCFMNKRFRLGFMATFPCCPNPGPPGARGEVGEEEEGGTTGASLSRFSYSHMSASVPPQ

[4] = biological target: T4, Muscarinic acetylcholine receptor M2 (Homo sapiens, UniProt P08172); assay type: functional, cell-based
T4 sequence (P08172 whole entry): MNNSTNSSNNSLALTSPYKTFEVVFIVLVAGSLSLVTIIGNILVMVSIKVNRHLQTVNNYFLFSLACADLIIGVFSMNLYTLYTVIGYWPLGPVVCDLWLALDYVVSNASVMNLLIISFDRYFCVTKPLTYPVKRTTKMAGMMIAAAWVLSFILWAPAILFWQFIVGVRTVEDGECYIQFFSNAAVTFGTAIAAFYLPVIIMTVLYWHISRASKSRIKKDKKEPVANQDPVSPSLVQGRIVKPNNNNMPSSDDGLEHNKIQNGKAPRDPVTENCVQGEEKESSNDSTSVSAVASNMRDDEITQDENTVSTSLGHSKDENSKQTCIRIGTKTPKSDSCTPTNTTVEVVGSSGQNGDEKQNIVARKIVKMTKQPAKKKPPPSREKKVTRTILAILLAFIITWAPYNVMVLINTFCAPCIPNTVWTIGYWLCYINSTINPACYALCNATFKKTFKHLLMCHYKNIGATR

[5] = biological target: Muscarinic acetylcholine receptor M3 (Homo sapiens, UniProt P20309)
[6] = biological target: Neuronal acetylcholine receptor subunit alpha-4 (Homo sapiens, UniProt P43681)
Endothelin-1 receptor = biological target: T5, Endothelin-1 receptor (Homo sapiens, UniProt P25101)
T5 sequence (P25101 whole entry): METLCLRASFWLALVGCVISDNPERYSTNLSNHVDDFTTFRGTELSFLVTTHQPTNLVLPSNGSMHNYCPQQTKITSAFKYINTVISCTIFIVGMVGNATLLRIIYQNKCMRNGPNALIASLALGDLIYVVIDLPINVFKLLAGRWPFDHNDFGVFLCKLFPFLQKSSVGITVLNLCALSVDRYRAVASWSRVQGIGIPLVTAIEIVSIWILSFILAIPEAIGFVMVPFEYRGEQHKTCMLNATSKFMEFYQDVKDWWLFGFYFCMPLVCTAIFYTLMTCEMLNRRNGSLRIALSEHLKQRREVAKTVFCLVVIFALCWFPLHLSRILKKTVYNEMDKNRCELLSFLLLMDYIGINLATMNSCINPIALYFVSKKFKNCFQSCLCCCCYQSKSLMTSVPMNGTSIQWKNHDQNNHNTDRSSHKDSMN

Histamine H2 receptor = Histamine H2 receptor (Homo sapiens, UniProt P25021); assay type: functional, cell-based
[7] = biological target: 5-hydroxytryptamine receptor 2A (Homo sapiens, UniProt P28223); assay type: functional, cell-based
Motilin receptor = Motilin receptor (Homo sapiens, UniProt O43193)
Mu-type opioid receptor = Mu-type opioid receptor (Homo sapiens, UniProt P35372); experiment: biochemical; assay type: functional
[8] = biological target: Sodium-dependent dopamine transporter (Homo sapiens, UniProt Q01959)
D(3) dopamine receptor = D(3) dopamine receptor (Homo sapiens, UniProt P35462)
Also: assay procedure not described here.

Muscarinic acetylcholine receptor M3, sequence (P20309 whole entry): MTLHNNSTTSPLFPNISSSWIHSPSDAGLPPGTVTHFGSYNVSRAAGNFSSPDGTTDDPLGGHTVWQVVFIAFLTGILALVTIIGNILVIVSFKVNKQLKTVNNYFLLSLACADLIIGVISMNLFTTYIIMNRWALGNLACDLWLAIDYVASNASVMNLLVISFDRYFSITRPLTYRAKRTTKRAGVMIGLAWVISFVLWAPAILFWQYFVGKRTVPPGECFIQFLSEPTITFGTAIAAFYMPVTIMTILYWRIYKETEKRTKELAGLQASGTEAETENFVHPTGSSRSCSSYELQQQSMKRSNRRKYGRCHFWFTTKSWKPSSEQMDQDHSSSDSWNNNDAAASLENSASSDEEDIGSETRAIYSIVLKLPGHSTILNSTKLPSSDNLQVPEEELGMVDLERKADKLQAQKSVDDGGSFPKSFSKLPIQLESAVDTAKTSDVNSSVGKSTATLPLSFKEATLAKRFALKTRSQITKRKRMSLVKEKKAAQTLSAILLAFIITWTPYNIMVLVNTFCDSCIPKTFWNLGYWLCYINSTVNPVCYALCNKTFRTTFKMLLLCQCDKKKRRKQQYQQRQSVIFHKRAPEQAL
Beta-2 adrenergic receptor, sequence (P07550 whole entry): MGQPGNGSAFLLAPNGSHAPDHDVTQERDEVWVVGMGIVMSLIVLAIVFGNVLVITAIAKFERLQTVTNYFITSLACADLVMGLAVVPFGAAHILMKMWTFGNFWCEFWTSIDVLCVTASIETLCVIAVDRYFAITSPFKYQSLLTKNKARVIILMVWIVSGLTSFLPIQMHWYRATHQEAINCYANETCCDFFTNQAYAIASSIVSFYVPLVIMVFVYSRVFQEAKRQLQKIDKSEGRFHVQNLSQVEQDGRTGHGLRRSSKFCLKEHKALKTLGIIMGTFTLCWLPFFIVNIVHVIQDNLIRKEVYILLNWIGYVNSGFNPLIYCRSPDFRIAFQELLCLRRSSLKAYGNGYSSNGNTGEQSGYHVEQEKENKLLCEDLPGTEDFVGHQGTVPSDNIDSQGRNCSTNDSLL
D(3) dopamine receptor, sequence (P35462 whole entry): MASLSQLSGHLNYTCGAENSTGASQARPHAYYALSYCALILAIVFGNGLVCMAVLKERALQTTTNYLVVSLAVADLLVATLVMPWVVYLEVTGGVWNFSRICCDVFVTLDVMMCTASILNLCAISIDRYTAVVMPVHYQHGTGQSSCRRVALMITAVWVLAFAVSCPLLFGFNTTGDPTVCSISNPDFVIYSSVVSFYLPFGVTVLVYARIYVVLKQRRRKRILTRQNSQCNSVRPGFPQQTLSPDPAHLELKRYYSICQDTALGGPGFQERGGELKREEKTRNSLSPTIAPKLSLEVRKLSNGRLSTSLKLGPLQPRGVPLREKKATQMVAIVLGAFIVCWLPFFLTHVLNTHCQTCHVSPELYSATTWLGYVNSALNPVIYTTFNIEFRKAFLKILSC
Vasopressin V2 receptor, sequence (P30518 whole entry): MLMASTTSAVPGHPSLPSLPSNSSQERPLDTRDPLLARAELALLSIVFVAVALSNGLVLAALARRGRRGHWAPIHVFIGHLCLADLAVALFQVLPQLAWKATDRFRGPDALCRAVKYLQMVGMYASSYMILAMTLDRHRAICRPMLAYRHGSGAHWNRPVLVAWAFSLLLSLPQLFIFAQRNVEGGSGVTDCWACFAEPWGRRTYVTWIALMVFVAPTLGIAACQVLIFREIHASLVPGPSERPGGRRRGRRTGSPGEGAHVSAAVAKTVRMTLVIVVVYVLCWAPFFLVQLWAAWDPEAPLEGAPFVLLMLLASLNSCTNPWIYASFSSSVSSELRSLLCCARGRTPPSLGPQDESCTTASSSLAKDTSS
Motilin receptor, sequence (O43193 whole entry): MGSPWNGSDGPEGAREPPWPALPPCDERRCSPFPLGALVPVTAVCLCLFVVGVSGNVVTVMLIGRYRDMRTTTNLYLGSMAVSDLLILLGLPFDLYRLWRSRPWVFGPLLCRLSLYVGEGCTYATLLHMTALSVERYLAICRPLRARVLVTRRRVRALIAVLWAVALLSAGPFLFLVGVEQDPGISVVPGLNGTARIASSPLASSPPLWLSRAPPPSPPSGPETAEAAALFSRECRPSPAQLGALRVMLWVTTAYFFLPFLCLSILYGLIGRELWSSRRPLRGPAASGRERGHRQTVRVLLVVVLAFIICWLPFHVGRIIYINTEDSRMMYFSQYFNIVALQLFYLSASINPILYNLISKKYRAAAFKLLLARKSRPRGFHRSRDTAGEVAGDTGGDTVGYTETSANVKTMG
Sodium-dependent dopamine transporter, sequence (Q01959 whole entry): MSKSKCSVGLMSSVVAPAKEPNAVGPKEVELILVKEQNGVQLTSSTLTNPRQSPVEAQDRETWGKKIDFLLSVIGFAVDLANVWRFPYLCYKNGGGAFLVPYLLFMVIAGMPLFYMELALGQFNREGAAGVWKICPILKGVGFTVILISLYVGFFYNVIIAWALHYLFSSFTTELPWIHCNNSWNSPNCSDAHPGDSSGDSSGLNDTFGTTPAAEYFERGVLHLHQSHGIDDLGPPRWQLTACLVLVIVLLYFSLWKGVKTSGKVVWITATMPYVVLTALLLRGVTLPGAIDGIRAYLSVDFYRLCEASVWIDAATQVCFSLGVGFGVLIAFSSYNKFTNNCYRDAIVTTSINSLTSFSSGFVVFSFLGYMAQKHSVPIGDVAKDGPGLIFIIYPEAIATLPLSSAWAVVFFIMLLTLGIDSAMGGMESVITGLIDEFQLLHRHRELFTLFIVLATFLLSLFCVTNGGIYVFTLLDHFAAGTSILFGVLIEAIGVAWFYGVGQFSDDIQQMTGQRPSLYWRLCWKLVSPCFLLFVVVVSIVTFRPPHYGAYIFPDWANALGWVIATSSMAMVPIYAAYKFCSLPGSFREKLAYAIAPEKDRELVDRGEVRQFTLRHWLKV
Mu-type opioid receptor, sequence (P35372 whole entry): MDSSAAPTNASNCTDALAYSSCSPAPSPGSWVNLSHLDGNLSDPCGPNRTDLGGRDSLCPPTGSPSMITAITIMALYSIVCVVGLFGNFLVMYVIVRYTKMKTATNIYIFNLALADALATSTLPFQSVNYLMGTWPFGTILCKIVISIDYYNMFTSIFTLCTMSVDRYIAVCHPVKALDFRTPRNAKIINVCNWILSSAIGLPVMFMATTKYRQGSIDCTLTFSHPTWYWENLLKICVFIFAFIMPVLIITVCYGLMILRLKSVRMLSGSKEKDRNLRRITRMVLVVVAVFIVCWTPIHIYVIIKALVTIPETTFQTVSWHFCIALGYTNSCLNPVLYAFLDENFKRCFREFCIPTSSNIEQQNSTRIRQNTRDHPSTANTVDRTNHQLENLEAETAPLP
Neuronal acetylcholine receptor subunit alpha-4, sequence (P43681 whole entry): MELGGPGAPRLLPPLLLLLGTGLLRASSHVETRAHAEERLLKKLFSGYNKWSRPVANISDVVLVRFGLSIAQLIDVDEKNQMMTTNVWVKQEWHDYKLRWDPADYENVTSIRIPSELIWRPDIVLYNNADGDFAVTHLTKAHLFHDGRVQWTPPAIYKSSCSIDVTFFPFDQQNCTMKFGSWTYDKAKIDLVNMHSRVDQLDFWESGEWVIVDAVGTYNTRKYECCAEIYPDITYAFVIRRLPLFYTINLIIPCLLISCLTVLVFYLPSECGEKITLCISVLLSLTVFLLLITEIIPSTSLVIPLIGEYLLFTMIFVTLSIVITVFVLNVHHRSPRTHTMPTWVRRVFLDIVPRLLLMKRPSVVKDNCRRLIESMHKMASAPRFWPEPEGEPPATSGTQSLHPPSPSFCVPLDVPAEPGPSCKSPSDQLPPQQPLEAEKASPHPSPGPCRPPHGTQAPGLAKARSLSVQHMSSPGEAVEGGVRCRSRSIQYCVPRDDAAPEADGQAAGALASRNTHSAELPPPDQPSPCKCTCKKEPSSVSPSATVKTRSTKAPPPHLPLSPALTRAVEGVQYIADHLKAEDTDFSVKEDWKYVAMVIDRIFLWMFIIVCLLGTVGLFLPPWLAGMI
Histamine H2 receptor, sequence (P25021 whole entry): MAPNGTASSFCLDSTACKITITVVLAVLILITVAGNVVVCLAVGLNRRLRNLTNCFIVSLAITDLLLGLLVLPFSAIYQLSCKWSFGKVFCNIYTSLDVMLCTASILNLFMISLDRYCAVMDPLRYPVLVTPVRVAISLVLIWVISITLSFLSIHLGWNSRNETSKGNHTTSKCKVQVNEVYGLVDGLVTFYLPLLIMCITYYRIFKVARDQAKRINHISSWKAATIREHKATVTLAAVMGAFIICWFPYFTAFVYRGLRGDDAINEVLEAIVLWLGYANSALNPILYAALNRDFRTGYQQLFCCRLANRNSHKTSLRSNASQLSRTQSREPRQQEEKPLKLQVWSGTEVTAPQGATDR
5-hydroxytryptamine receptor 2A, sequence (P28223 whole entry): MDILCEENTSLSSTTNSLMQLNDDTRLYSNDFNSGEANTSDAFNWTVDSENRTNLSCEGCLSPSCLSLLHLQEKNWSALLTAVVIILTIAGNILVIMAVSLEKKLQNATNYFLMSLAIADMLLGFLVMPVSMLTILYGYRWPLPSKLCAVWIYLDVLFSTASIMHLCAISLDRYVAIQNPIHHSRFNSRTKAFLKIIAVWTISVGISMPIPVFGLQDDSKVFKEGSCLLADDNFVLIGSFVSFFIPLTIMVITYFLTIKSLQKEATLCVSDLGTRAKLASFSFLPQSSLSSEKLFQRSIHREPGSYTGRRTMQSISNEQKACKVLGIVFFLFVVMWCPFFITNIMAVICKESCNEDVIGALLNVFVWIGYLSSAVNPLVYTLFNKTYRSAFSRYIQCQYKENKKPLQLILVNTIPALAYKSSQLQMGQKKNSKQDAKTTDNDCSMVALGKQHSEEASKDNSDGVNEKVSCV

Structure (SMILES)	AC50 [1]	AC50 [2]	AC50 (Vasopressin V2 receptor)	AC50 (B2 bradykinin receptor)	AC50 [3]	AC50 [4]	AC50 [5]	AC50 [6]	AC50 (Endothelin-1 receptor)	AC50 (Histamine H2 receptor)	AC50 [7]	AC50 (Motilin receptor)	AC50 (Mu-type opioid receptor)	AC50 [8]	AC50 (D(3) dopamine receptor)
O=C(O)CCCCCCNC1c2ccccc2CCc2ccccc21 [AMINEPTINE]	> 30 µM	> 30 µM	> 30 µM	> 30 µM	> 30 µM	> 30 µM	> 30 µM	> 30 µM	> 30 µM	> 30 µM	> 30 µM	> 30 µM	> 30 µM	1.5 µM	> 30 µM
COc1ccccc1OCCNCC(O)c1ccc(C)c(S(N)(=O)=O)c1 (stereo not given) [AMOSULALOL]	2.3 µM	0.1 µM	> 30 µM	> 30 µM	> 30 µM	> 30 µM	> 30 µM	> 30 µM	> 30 µM	> 30 µM	> 30 µM	> 30 µM	> 30 µM	> 30 µM	0.12 µM
CC(=O)OCC(=O)[C@@]12N=C(C)O[C@@H]1C[C@H]1[C@@H]3CCC4=CC(=O)C=C[C@]4(C)[C@H]3[C@@H](O)C[C@@]12C [DEFLAZACORT]	> 30 µM	> 30 µM	> 30 µM	> 30 µM	> 30 µM	> 30 µM	> 30 µM	> 30 µM	> 30 µM	> 30 µM	> 30 µM	> 30 µM	> 30 µM	> 30 µM	> 30 µM
COc1ccc(CCN(C)CCCC(C#N)(c2cc(OC)c(OC)c(OC)c2)C(C)C)cc1OC (stereo not given) [GALLOPAMIL]	7.6 µM	> 30 µM	> 30 µM	> 30 µM	> 30 µM	> 30 µM	> 30 µM	> 30 µM	> 30 µM	> 30 µM	> 30 µM	> 30 µM	> 30 µM	> 30 µM	3.3 µM
CCOC(=O)[C@H](CCc1ccccc1)N[C@@H](C)C(=O)N1C(=O)N(C)C[C@H]1C(=O)O	> 30 µM	> 30 µM	> 30 µM	> 30 µM	> 30 µM	> 30 µM	> 30 µM	> 30 µM	> 30 µM	> 30 µM	> 30 µM	> 30 µM	> 30 µM	> 30 µM	> 30 µM
CC(C)=CCC/C(C)=C/C=C/C(C)=C/C=C/C(C)=C/C=C/C=C(C)/C=C/C=C(C)/C=C/C=C(\C)CCC=C(C)C [LYCOPENE]	> 30 µM	> 30 µM	> 30 µM	> 30 µM	> 30 µM	> 30 µM	> 30 µM	> 30 µM	> 30 µM	> 30 µM	> 30 µM	> 30 µM	> 30 µM	> 30 µM	> 30 µM
C=CCN1CCCC1CNC(=O)c1cc(S(N)(=O)=O)cc(OC)c1OC (stereo not given) [VERALIPRIDE]	10 µM	> 30 µM	> 30 µM	> 30 µM	> 30 µM	> 30 µM	> 30 µM	> 30 µM	> 30 µM	> 30 µM	> 30 µM	> 30 µM	> 30 µM	> 30 µM	0.003 µM
COC(=O)C1=C(C)NC(C)=C(C(=O)OC2CCCN(Cc3ccccc3)C2)C1c1cccc([N+](=O)[O-])c1 (stereo not given) [BENIDIPINE]	27 µM	> 30 µM	> 30 µM	> 30 µM	> 30 µM	> 30 µM	> 30 µM	> 30 µM	> 30 µM	> 30 µM	> 30 µM	3.5 µM	> 30 µM	12 µM	16 µM
COc1ccc(-c2ccc3cc(C(=O)O)ccc3c2)cc1C12CC3CC(CC(C3)C1)C2	> 30 µM	> 30 µM	> 30 µM	> 30 µM	> 30 µM	> 30 µM	> 30 µM	> 30 µM	> 30 µM	> 30 µM	> 30 µM	> 30 µM	> 30 µM	> 30 µM	> 30 µM
COc1cc2c(N)nc(N3CCN(C(=O)OCC(C)(C)O)CC3)nc2c(OC)c1OC [TRIMAZOSIN]	13 µM	> 30 µM	> 30 µM	> 30 µM	> 30 µM	> 30 µM	> 30 µM	> 30 µM	> 30 µM	> 30 µM	> 30 µM	> 30 µM	> 30 µM	> 30 µM	> 30 µM
CC(Oc1c(Cl)cccc1Cl)C1=NCCN1 (stereo not given) [LOFEXIDINE]	0.42 µM	> 30 µM	> 30 µM	> 30 µM	> 30 µM	> 30 µM	> 30 µM	> 30 µM	> 30 µM	> 30 µM	> 30 µM	> 30 µM	> 30 µM	> 30 µM	> 30 µM
